Experimental data taken from paper PMC9574929, “Development of Hydrogen Sulfide-Releasing Carbonic Anhydrases IX- and XII-Selective Inhibitors with Enhanced Antihyperalgesic Action in a Rat Model of Arthritis” (Journal of Medicinal Chemistry, 2022).

Experiments:
[1] = Spectrophotometric methylene blue H2S release assay in rat liver homogenate; conditions: compound 150 μM, 37 °C
Description: The released H2S, trapped by zinc acetate to form zinc sulfide, reacts with N,N-dimethyl-1,4-phenylenediamine in the presence of iron(III) to yield methylene blue, which can be easily quantified by measuring absorbance at 667 nm (MB^+ form) or at 748 nm (MBH^2+).[42],[43] The compound H2S release in different conditions was monitored over time and quantified according to a calibration curve with Na2S (1–300 μM). Incubation of compound 3 and the hybrid derivatives in phosphate buffer at 37 °C either in the presence or absence of thiol compounds (cysteine or glutathione) produced no or a barely detectable H2S release, respectively. […]
Rat liver was homogenized in ice-cold 50 mM potassium phosphate buffer (pH 7.4).[41] Optimal w/v ratios of 1/20 were determined from preliminary experiments (data not shown). […] The released H2S concentration was measured as described previously.[45] […] Baseline H2S concentration was determined in incubates upon addition of trichloroacetic acid directly to the tissue homogenate in absence of the compound. Thus, N,N-dimethyl-p-phenylenediamine sulfate in HCl 5 M (20 mM; 200 μL) and FeCl3 in HCl 1.2 M (30 mM; 200 μL) were added to the mixture, and the absorbance of the formed methylene blue was measured after 30 min at 25 °C at 667 nm using a Varian Cary 300 UV–Visible spectrophotometer. […]

[2] = tested on: rat model of arthritis induced by the intra-articular injection of complete Freund's adjuvant (CFA); assay: Paw pressure test, CFA-induced arthritis; type: in vivo
Description: (§1) Articular damage was induced by injection of Complete Freund’s Adjuvant (CFA; Sigma-Aldrich, St Louis, MO, USA), containing 1 mg/mL of heat-killed and dried Mycobacterium tuberculosis in paraffin oil and mannide monooleate, into the tibiotarsal joint.[50] Briefly, the rats were lightly anesthetized with 2% isoflurane, the left leg skin was sterilized with 75% ethyl alcohol, and the lateral malleolus was located by palpation. A 28-gauge needle was then inserted vertically to penetrate the skin and turned distally for insertion into the articular cavity at the gap between the tibiofibular and tarsal bone until a distinct loss of resistance was felt. A volume of 50 μL of CFA was then injected (day 0). Control rats received 50 μL of saline solution (day 0) in the tibiotarsal joint.
(§2) The hybrid derivatives 26, 29, 30, and 31 (1, 10, and 30 mg/kg) were suspended in a 1% solution of carboxymethylcellulose (CMC) sodium salt and acutely per os administered starting from day 14 after CFA i.a. injection, when arthritis was well established. The H2S releaser 3 and CAI 15 were also administered alone or in coadministration at the equimolar dose of compound 30 30 mg/kg (13.23 and 17.71 mg/kg, respectively). The antihypersensitivity effects were evaluated over time by the Paw pressure and Incapacitance tests.
The nociceptive threshold of rats was determined with an analgesimeter (Ugo Basile, Varese, Italy), according to the method described by Leighton et al.[51] and Maresca et al.,[52] (doi: 10.1111/jphp.12828). Briefly, a constantly increasing pressure was applied to a small area of the dorsal surface of the hind paw using a blunt conical probe by a mechanical device. Mechanical pressure was increased until vocalization or a withdrawal reflex occurred while rats were lightly restrained. Vocalization or withdrawal reflex thresholds were expressed in grams. […]

[3] = tested on: rat model of arthritis induced by the intra-articular injection of complete Freund's adjuvant (CFA); assay: Incapacitance test, CFA-induced arthritis; type: in vivo
Description: as §1, §2
Weight-bearing changes were measured using an incapacitance apparatus (Linton Instrumentation, Norfolk, U.K.) to detect changes in postural equilibrium after a hind limb injury.[53],[54] Rats were trained to stand on their hind paws in a box with an inclined plane (65° from horizontal). This box was placed above the incapacitance apparatus. This allowed us to independently measure the weight that the animal applied on each hind limb. The value reported for each animal is the mean of five consecutive measurements. In the absence of hind limb injury, rats applied an equal weight on both hind limbs, indicating postural equilibrium, whereas an unequal distribution of weight on the hind limbs indicated a monolateral decreased pain threshold. Data are expressed as the difference between the weight applied to the limb contralateral to the injury and the weight applied to the ipsilateral limb (Δ weight).

[4] = per os, 3 13.23 mg/kg, 15 17.71 mg/kg

O=C(O)c1ccc(-c2cssc2=S)cc1 [Compound 3, 4-(3-Thioxo-3H-1,2-dithiol-4-yl)benzoic Acid]
time at which H2S release peaked / reached a plateau [1]: ~20 min
time of peak antihyperalgesic effect, Paw pressure test ([2]; after per os administration): 15 min
antihyperalgesic effect, Paw pressure test, dose equimolar to 30 30 mg/kg [2, 4]: rapid antihyperalgesic effect that peaked at 15 min and totally disappeared after 45 min
time of peak of efficacy, Incapacitance test ([3]; after per os treatment): 15 min
antihyperalgesic effect, Incapacitance test, dose equimolar to 30 30 mg/kg [3, 4]: comparable to that of the hybrid analogue 30 at its optimal dose
